# Where two headings read alike, the source gives them in different places.
# How the values were obtained:
# [1] = tested on: BRAF^V600-mutant melanoma; conditions: cited from earlier work
# [2] = tested on: dose-escalated A375 cells; experiment: Proliferation assay (Alamar Blue, 96 h) in dose-escalated A375 cell lines; type: cell-based, human; conditions: for IC50: Homo sapiens; for Fold Change of IC50: BRAFi- + MEKi-resistant versus parental A375
# Source text: (§6) Cancer cell lines were maintained in cell culture under standard media and serum conditions. For dose escalation studies, A375 cells were split, grown to about 40-60% confluence, and then treated with the initial dose of the specified drug.
# (§7) Cells were then allowed to grow until 70-90% confluence and split. Split ratios were kept as “normal” as possible and reasonably consistent between treatments (e.g. a minimum of 50% of the normal split ratio of the parentals). Medium was refreshed every 3-4 days. When cells again reached about 40-60% confluence, the dose was escalated. In the event that the 40-60% window was missed, the cells were split again and dosed once they reached 40-60% confluence. Again, medium was refreshed every 3-4 days.
# (§8) Proliferation assays were used to track changes in sensitivity to the escalated agent(s) at appropriate time intervals (e.g. each month, although the timing is dependent on adequate cell numbers being available). For proliferation assays, cells were seeded in 96-well plates at 3000 cells per well in drug-free DMEM medium containing 10% FBS and allowed to adhere overnight prior to addition of compound or vehicle control. The final DMSO concentration was constant at 0.1%. Test compounds were incubated with the cells for 96 hours at 37° C. and 5% CO2 in a humidified atmosphere. Alamar Blue 10% (v/v) was then added and incubated for 4 hours and fluorescent product was detected using a BMG FLUOstar plate reader. The average media only background value was deducted and the data analyzed using a 4-parameter logistic equation in GraphPad Prism.
# (§9) For assessment of drug sensitivity in cell-line models of acquired resistance, drug sensitivity of dose-escalated A375 cells and isogenic RKO cells was assessed in 96-hour proliferation assays. […] For the A375 assays Alamar blue (ThermoFisher) 10% (v/v) was added and incubated for 4 h, and fluorescent product was then detected using a BMG FLUOstar. The average media only background value was deducted and the data analyzed using a 4-parameter logistic equation in GraphPad Prism.
# (§10) Cells were allowed to grow until ˜70-90% confluence and split; medium was refreshed every 3-4 days. […] This process was repeated as required.
# [3] = tested on: patient-derived xenograft (AT052C); experiment: Patient-derived xenograft from vemurafenib-refractory BRAFV600E melanoma; type: in vivo, mice
# Source text: Tumor fragments were harvested from host animals and implanted into immune-deficient mice.
# upstaged A375 xenografts = experiment: Upstaged A375 xenograft model, BVD-523 in combination with dabrafenib; type: in vivo, mice; conditions: 50 mg/kg BID; 11 evaluable mice
# Procedure: (§1) Combination dosing was stopped on Day 20 to monitor for tumor regrowth. Animals were monitored individually and euthanized when each tumor reached an endpoint volume of 2000 mm^3, or the final day (Day 45), whichever came first, and median time to endpoint (TTE) calculated. The combination was also evaluated in an upstaged A375 model where larger tumors in the range 228-1008 mm^3 were evaluated. Here, mice were randomized into 1 group (Group 1) of 14 and 4 groups (Groups 2-5) of 20. […] Tumors were measured twice weekly. Combination dosing was stopped on Day 42 to monitor for tumor regrowth through study end (Day 60). Treatment outcome was determined from % TGD, defined as the percent increase in median TTE for treated versus control mice, with differences between groups analyzed via log rank survival analysis. […] Mice were also monitored for CR and PR responses. Animals with a CR at the end of the study were additionally classified as TFS.
# A375 cells [4] = experiment: Dose escalation study (acquisition of resistance); type: cell-based, human; conditions: progressively increasing concentrations
# Source text: as §6, §7, §10
# A375 xenografts [5] = experiment: A375 xenografts, BVD-523 in combination with dabrafenib; type: in vivo, mice; conditions: 100 mg/kg QD
# Source text: (§2) For measurement of antitumor activity in A375 xenografts, xenografts were initiated with A375 cells maintained by serial subcutaneous transplantation in female athymic nude mice. Each test mouse received an A375 tumor fragment (1 mm^3) implanted subcutaneously in the right flank. Once tumors reached target size (80-120 mm^3), animals were randomized into treatment and control groups, and drug treatment was initiated.
# as §1
# [6] = tested on: SW48 cell lines heterozygous for knock-in of mutant KRAS; experiment: Proliferation assay in isogenic SW48 lines with knock-in of mutant KRAS (Alamar blue, 96 h); type: cell-based; conditions: versus control SW48
# Procedure: Isogenic SW48 cell lines heterozygous for knock-in of mutant KRAS (De Roock et al 2010, JAMA, 304, 1812-1820) were obtained from Horizon Discovery (Catalogue numbers; HD 103-002, HD 103-006 HD 103-007, HD 103-009, HD 103-010, HD 103-011, HD 103-013). […] Viability was then assessed using Alamar blue.
# A375 cells [7] = experiment: Proliferation assay (Alamar Blue, 96 h) in parental A375 cells; type: cell-based; conditions: Homo sapiens, A-375, Parental A375
# Procedure: as §8, §9
# RKO Parental = experiment: Single agent proliferation assay (CellTiter-Glo, 96 h); type: cell-based
# Procedure: (§3) For assessment of drug sensitivity in cell-line models of acquired resistance, drug sensitivity of dose-escalated A375 cells and isogenic RKO cells was assessed in 96-hour proliferation assays. […] For the A375 assays Alamar blue (ThermoFisher) 10% (v/v) was added and incubated for 4 h, and fluorescent product was then detected using a BMG FLUOstar.
# (§4) Compounds were prepared from DMSO stocks to give the desired final concentrations. The final DMSO concentration was constant at 0.1%. […] CellTiter-Glo® reagent (Promega, Madison, Wis.) was added according to manufacturer's instructions and luminescence detected using the BMG FLUOstar plate reader (BMG Labtech, Ortenberg, Germany).
# [8] = tested on: RKO MEK1 (Q56P/+) Clone 1; experiment: as above; type: cell-based; conditions: RKO MEK1 Q56P/+ Cl.1
# Procedure: as §3
# (§5) RKO MEK1 Q56P Isogenic cells were produced by Horizon Discovery (Cambridge, UK; #HD 106-019) using a recombinant AAV-mediated gene targeting strategy. Briefly, rAAV virus was generated following transfection of the appropriate targeting vector and helper vectors in HEK293T cells, purified using an AAV purification kit (Virapur, San Diego, USA) and titrated using qPCR. Parental homozygous RKO cells (homozygous wild type for MEK1) were then infected with rAAV virus and clones that had integrated the selection cassette were identified by G418 selection and expanded. Correctly targeted clones that were heterozygous for knock-in of the MEK1 Q56P point mutation into a single allele were identified by PCR and sequencing.
# as §4
# [9] = tested on: RKO MEK1 (Q56P/+) Clone 2; experiment: as above; type: cell-based; conditions: RKO MEK1 Q56P/+ Cl.2
# Procedure: as §3, §5, §4
# A375 xenografts [10] = experiment: Antitumor activity in A375 xenografts, monotherapy; type: in vivo, mice
# Procedure: as §2
# Oral temozolomide was administered as a positive reference compound at 75 or 175 mg/kg once daily (QD) for a total of five treatments (QD×5).
# [11] = A-375, BRAFi- + MEKi-resistant (dabrafenib and trametinib combination-resistant) A375 population, read-out: IC50
# [12] = A-375, Month 1, Dab/Tram-escalated line, read-out: Relative IC50
# [13] = A-375, Month 1, Tram/523-escalated line, read-out: Relative IC50
# [14] = A-375, Month 2, Dab/Tram-escalated line, read-out: Relative IC50
# [15] = A-375, Month 2, Tram/523-escalated line, read-out: Relative IC50
# [16] = A-375, Month 3, Dab/Tram-escalated line, read-out: Relative IC50
# [17] = A-375, Month 3, Tram/523-escalated line, read-out: Relative IC50
smiles,measurement,setting,value
CC(C)(C)c1nc(-c2cccc(NS(=O)(=O)c3c(F)cccc3F)c2F)c(-c2ccnc(N)n2)s1 [Dabrafenib],overall survival,"[1]; Long et al. 2015, BRAF^V600E/K",18.7 months
same,overall response,[1]; Long et al. 2015,53%
same,progression-free survival (PFS),[1]; Long et al. 2015,8.8 months
same,response rate,"[1]; phase III, single agent versus dacarbazine",approximately 50%
same,IC50,"[2]; A-375, BRAFi- + MEKi-resistant (dabrafenib and trametinib combination-resistant) A375 population",17.9 nM
same,IC50,"[2]; A-375, read-out: Relative IC50, Month 1, BVD-523-escalated line",8 nM
same,IC50,"[2]; A-375, read-out: Relative IC50, Month 1, Dab/523-escalated line",68 nM
same,IC50,"[2]; A-375, read-out: Relative IC50, Month 1, Dab/Tram-escalated line",58 nM
same,IC50,"[2]; A-375, read-out: Relative IC50, Month 1, Tram-escalated line",29 nM
same,IC50,"[2]; A-375, read-out: Relative IC50, Month 1, Tram/523-escalated line",11 nM
same,IC50,"[2]; A-375, read-out: Relative IC50, Month 2, BVD-523-escalated line",697 nM
same,IC50,"[2]; A-375, read-out: Relative IC50, Month 2, Dab-escalated line",11.5 nM
same,IC50,"[2]; A-375, read-out: Relative IC50, Month 2, Dab/523-escalated line",218 nM
same,IC50,"[2]; A-375, read-out: Relative IC50, Month 2, Dab/Tram-escalated line",256 nM
same,IC50,"[2]; A-375, read-out: Relative IC50, Month 2, Tram/523-escalated line",68 nM
same,IC50,"[2]; A-375, read-out: Relative IC50, Month 3, BVD-523-escalated line",18.4 nM
same,IC50,"[2]; A-375, read-out: Relative IC50, Month 3, Dab-escalated line",2.5 nM
same,IC50,"[2]; A-375, read-out: Relative IC50, Month 3, Dab/523-escalated line",337 nM
same,IC50,"[2]; A-375, read-out: Relative IC50, Month 3, Dab/Tram-escalated line",17.9 nM
same,IC50,"[2]; A-375, read-out: Relative IC50, Month 3, Tram/523-escalated line",73 nM
same,TGI,[3]; 50 mg/kg BID,22%
same,activity in patient-derived line ST052C,"[3]; dabrafenib 50 mg/kg BID, BVD-523 100 mg/kg BID",acquired cross-resistance
same,CRs,upstaged A375 xenografts,5
same,PRs,upstaged A375 xenografts,5
same,TFS,upstaged A375 xenografts,3
same,emergence of drug-resistant cell lines,A375 cells [4],readily obtained
same,PR,A375 xenografts [5],1
CC(=O)O[C@H]1C(=O)[C@@]2(C)[C@H]([C@H](OC(=O)c3ccccc3)[C@]3(O)C[C@H](OC(=O)[C@H](O)[C@@H](NC(=O)c4ccccc4)c4ccccc4)C(C)=C1C3(C)C)[C@]1(OC(C)=O)CO[C@@H]1C[C@@H]2O [Paclitaxel],sensitivity after knock-in of KRAS mutant alleles,[6],unaltered
same,Fold Change of IC50,[2],+1.8 fold
same,IC50,[2]; [11],3.5 nM
same,IC50,[2]; [12],3.5 nM
same,IC50,[2]; [13],3.4 nM
same,IC50,[2]; [14],4.7 nM
same,IC50,[2]; [15],8.9 nM
same,IC50,[2]; [16],4.7 nM
same,IC50,[2]; [17],8.9 nM
same,IC50,A375 cells [7],1.9 nM
same,IC50,RKO Parental,2 nM
same,IC50,[8],2 nM
same,IC50,[9],2 nM
CC(=O)Nc1cccc(-n2c(=O)n(C3CC3)c(=O)c3c(Nc4ccc(I)cc4F)n(C)c(=O)c(C)c32)c1 [Trametinib],Fold Change of IC50,[2],+13.5 fold
same,Fold Change of IC50,[2]; listed as trametinib,13.5 fold
same,IC50,[2]; [11],2.7 nM
same,IC50,[2]; [12],3.9 nM
same,IC50,[2]; [13],2.5 nM
same,IC50,[2]; [14],12.6 nM
same,IC50,[2]; [15],4.6 nM
same,IC50,[2]; [16],2.7 nM
same,IC50,[2]; [17],11.2 nM
same,IC50,A375 cells [7],0.2 nM
same,IC50,RKO Parental,6 nM
same,IC50,[8],93 nM
same,IC50,[9],80 nM
Cn1nnc2c(C(N)=O)ncn2c1=O [temozolomide],tumor growth inhibition (TGI),A375 xenografts [10]; 75 mg/kg QD×5,34%
same,tumor growth inhibition (TGI),A375 xenografts [10]; 175 mg/kg QD×5,78%
